We go through eight molecules from article PMC8725971, “Polycyclic nitrogen heterocycles as potential thymidine phosphorylase inhibitors: synthesis, biological evaluation, and molecular docking study” (Journal of Enzyme Inhibition and Medicinal Chemistry, 2021).

For data set [1], the target named is T1, E. coli TP (Escherichia coli, UniProt P07650).
T1 construct: purchased Sigma Aldrich T2807-1KU
The data set is described as follows: In vitro E. coli thymidine phosphorylase inhibition, spectrophotometric assay at 290 nm. Type of data set: biochemical. As to conditions: for IC50: 300 µM thymidine, pH 7.4, 25 °C; for inhibition at 50 µM: compound at 50 µM, average of three measurements. The method, then:
The adopted protocol is a modification of the original method developed by Khan[51]. TP activity and inhibition assays were based on the phosphorolysis of thymidine to thymine, this conversion results in a significant spectrophotometric decrease. At 290 nm and pH 7.4, thymidine has a higher extinction coefficient than thymine (Δε = −480 M^−1 cm^−1). The absorbance at 290 nm was measured every 2 min for 30 min in 96-well plates at 25 °C.
Thymidine was dissolved in buffer (3 mM). […] All experiments were conducted in triplicate.
The method reported by Khan et al.[51] has been adapted to a screening in 96-well plates (200 µL well, UV-Star® 96-well microplate, Greiner). Each well contained 160 µL of 50 mM KH2PO4 buffer (pH 7.4), 0.006 U of E. coli TP (T2807-1KU, Sigma Aldrich), and 20 µL of the tested compound solution. […] The decrease in absorbance due to conversion of thymidine to thymine was followed during 30 min (PowerWave HT Microplate Reader, Biotek) at 25 °C, with one measure every 2 min and a 30 s shaking before each measure.

The next data set can be described thus: physchem. As to conditions: aqueous buffer, kinetic from dmso stock.
Data set [2] can be described thus: Solubility in the incubation medium. As to conditions: for Solubility (in words): incubation medium; for solubility: aqueous buffer, kinetic from dmso stock.
The target in data set [3] is T1, E. coli TP. Briefly: Phosphate competition study. The data set is classed as biochemical. As to conditions: saturating thymidine, phosphate 2–30 mM, compound at its IC50. The method, then:
The synthesised compounds have been designed as TP inhibitors interacting with the thymidine fixation site. […] E. coli TP activity was determined in the presence of a saturating concentration of thymidine (equivalent to three times the value of the Michaelis-Menten constant [km][52]) and variable amounts of phosphate (2–30 mM). Tested compounds have been used at a concentration corresponding to the IC50.
For this study, the reaction mixture was composed of 160 µL of 10 mM Tris buffer (pH 7.4), 150 mM NaCl, 2 mM EDTA, 0.006 U of E. coli TP, different concentrations of KH2PO4 (2, 5, 10 and 30 mM). Compounds were tested at a concentration close to their IC50. The reaction was initiated by the addition of 20 µL of thymidine (3 mM and 10 mM solutions).

Data set [4] has as its system human umbilical vein endothelial cells (HUVEC). Briefly: Cell proliferation assay (MTT), HUVEC. Type of data set: cell-based. As to conditions: 72 h, read-out: Growth inhibition, HUVEC. The protocol: (§1) The inhibitory effect on cell proliferation was assessed using MTT assay[53] after 72 h of treatment through dose-response assays performed in the 100 µM to 0.1 µM concentration range. The results were expressed as percentages of growth inhibition.
(§2) Cell viability was determined on HUVEC and A431 cell lines using 3–(4,5-dimethylthiazol-2-yl)-2,5-diphenyltetrazolium bromide (MTT; Sigma-Aldrich) assay[53] after treatment with compounds 2d and 2p. A total of 5 × 10^3 cells/well (A431 cell line) or 10^4 cells/well (HUVEC cell line) were plated in a 96-well plate and treated, in duplicates, with compounds 2d and 2p at five concentrations (0.1 µM, 1 μM, 10 μM, 50 μM, 100 μM) for 72 h. Absorbance was read at 570 nm using Labsystem Multiskan MS microplate reader. The results were expressed as percentages of growth inhibition compared to positive control cell growth (100%).

Data set [5] deals with epidermal carcinoma cells (A431). Briefly: Cell proliferation assay (MTT), A431. Type of data set: cell-based. As to conditions: Homo sapiens, 72 h, read-out: Growth inhibition, A431. The method, then: as §1, §2
Data set [6] concerns the target T1, E. coli TP. The data set is described as follows: Enzyme inhibition kinetic study (Lineweaver-Burk). The data set is classed as biochemical. As to conditions: for Km values in the presence of inhibitor / Vmax values in the presence of inhibitor: increasing inhibitor concentration; for Type of TP inhibition: thymidine as substrate, Lineweaver-Burk plots. The protocol: The percentage of TP inhibition was determined for different concentrations of the inhibitors and thymidine.
Figure 7. […] Results are presented as means ± SD; SD denoted by error bars (experiments carried out in triplicate).
The TP inhibiting activity at differents concentrations of compound 2d (0, 15, 20, 30 µM) and 2p (0, 4, 6, 8 µM) was evaluated in the presence of different concentrations of thymidine ([…]) in KH2PO4 buffer (pH 7.4).

The test system of a further data set is hTP. Also on record: method as in PMID 27783978. The settings on record: cited from earlier work.

What is called inhibition is the share of the control response that was lost under treatment. By solubility is commonly meant how much of the substance goes into solution per volume. The low end stands for a poorly soluble substance, the high end for a readily soluble substance. The melting point is the temperature, or range, at which the solid turns liquid. Usually IC50 stands for the point on the concentration scale where inhibition reaches its midpoint.

Values after ≈ are worked out from the molar mass of the structure shown. Counter-ions that a name gives are not always drawn.

T1 sequence (P07650 whole entry): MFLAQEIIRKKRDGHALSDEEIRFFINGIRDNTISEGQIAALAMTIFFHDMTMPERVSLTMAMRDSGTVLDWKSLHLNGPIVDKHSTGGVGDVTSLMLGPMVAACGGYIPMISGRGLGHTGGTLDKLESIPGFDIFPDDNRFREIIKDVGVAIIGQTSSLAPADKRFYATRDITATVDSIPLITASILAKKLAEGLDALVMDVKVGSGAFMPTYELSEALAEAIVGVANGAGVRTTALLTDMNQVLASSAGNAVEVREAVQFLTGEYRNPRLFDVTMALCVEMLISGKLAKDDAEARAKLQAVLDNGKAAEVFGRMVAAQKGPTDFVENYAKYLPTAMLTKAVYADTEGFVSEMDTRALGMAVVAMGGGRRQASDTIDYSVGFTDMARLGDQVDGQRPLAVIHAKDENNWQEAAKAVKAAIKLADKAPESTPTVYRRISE

`O=c1[nH]c(=O)c2cc3cc4c(cc3nc2[nH]1)OCO4` [Compound 2g]: at 15 µM the inhibition against E. coli TP [1] (compound at 15 µM (maximum solubility), 2.5% DMSO) was 0%. The molecule also registered a solubility in “physchem” of 15 µM (≈ 3.86 µg/mL). The “Solubility (in words)” value in [2] was “sparingly soluble”.
For the molecule `O=C(NCc1cc(=O)[nH]c(=O)[nH]1)c1cc2c(=O)[nH]c(=O)[nH]c2nc1C(=O)NCc1cc(=O)[nH]c(=O)[nH]1` [Compound 30, N^6,N^7-Bis((2,6-dioxo-1,2,3,6-tetrahydropyrimidin-4-yl)methyl)-2,4-dioxo-1,2,3,4-tetrahydropyrido[2,3-d]pyrimidine-6,7-dicarboxamide], the melting point was 259 to 261 °C (dec.). For the same molecule, the concentration for half-maximal inhibition (IC50) on E. coli TP [1] is 87 µM. The molecule further gave an inhibition at 50 µM on E. coli TP [1] (2.5% DMSO) of 31%. The molecule also came in with a solubility in [2] above 50 µM. The “Binding to the phosphate site” value on E. coli TP [3] is “did not bind to the phosphate site”.
With `O=C1c2cc3c(=O)[nH]c(=O)[nH]c3nc2C(=O)N1Cc1ccccc1` [Compound 28a], the IC50 against E. coli TP [1] was 62 µM. In addition, at 50 µM the inhibition against E. coli TP [1] (2.5% DMSO) was 44%. This molecule had a solubility in data set [2] above 50 µM. Also, the “Binding to the phosphate site” value on E. coli TP [3] is “did not bind to the phosphate site”.
Regarding `COc1ccc2cc3c(=O)[nH]c(=O)[nH]c3nc2c1` [Compound 2d], in data set [4], the inhibition at 100 µM worked out at 56%. This molecule also had an IC50 against E. coli TP [1] of 28 µM. In addition, the inhibition at 50 µM at E. coli TP [1] (2.5% DMSO) worked out at 89%. For the same molecule, the solubility in [2] was above 50 µM. Also, the inhibition at 50 µM in data set [5] (A-431, 50 µM) came out at 57%. On E. coli TP [6], the “Km values in the presence of inhibitor” value is “increased”, the “Vmax values in the presence of inhibitor” value is “did not change significantly” and the “Type of TP inhibition” value is listed as “competitive”.
Consider `O=C1c2cc3cc4c(cc3nc2C(=O)N1Cc1[nH]c(=O)[nH]c(=O)c1Br)OCO4` [Compound 23b, 2-[(5-Bromo-2,6-dioxo-1,2,3,6-tetrahydropyrimidin-4-yl)methyl]-6,7-methylenedioxy-1H-pyrrolo[3,4-b]quinoline-1,3(2H)-dione], for which the melting point is 370 to 372 °C (dec.). The same molecule registered an inhibition at 50 µM against E. coli TP [1] (2.5% DMSO) of 30%. Moreover, in data set [2], the solubility is 50 µM (≈ 22.3 µg/mL) and the “Solubility (in words)” value is listed as “less soluble”. The “Binding to the phosphate site” value on E. coli TP [3] was “did not bind to the phosphate site”.
As for `N=C1CCCN1Cc1[nH]c(=O)[nH]c(=O)c1Cl` [TPI, 5-chloro-6-[1-(2-iminopyrrolidinyl)methyl]uracil hydrochloride], in the data set with hTP, the IC50 was 0.035 µM.
Regarding `COc1ccc2c(C)c3c(=O)[nH]c(=O)[nH]c3nc2c1` [Compound 2p], the inhibition at 100 µM in data set [4] came out at 31%. The same molecule returned an IC50 against E. coli TP [1] of 26 µM. Also, at E. coli TP [1] (2.5% DMSO), the inhibition at 50 µM was 67%. This molecule yielded a solubility in data set [2] above 50 µM. Also, the inhibition at 100 µM in data set [5] (A-431, 100 µM) is 50%. In addition, on E. coli TP [3], the “Binding to the phosphate site” value is given as “did not bind to the phosphate site”. Also, on E. coli TP [6], the “Km values in the presence of inhibitor” value was “increased”, the “Vmax values in the presence of inhibitor” value is “did not change significantly” and the “Type of TP inhibition” value is reported as “competitive”.
`O=c1[nH]c(=O)c2cc3cc(Cl)c(Cl)cc3nc2[nH]1` [Compound 2l, 7,8-Dichloropyrimido[4,5-b]quinoline-2,4(1H,3H)-dione] showed a melting point above 360 °C. The IC50 on E. coli TP [1] is 42 µM. At E. coli TP [1] (2.5% DMSO), this molecule displayed an inhibition at 50 µM of 71%. The molecule further gave a solubility in data set [2] above 50 µM.
